Experimental data taken from publication PMC9851200, “Multiparameter phenotypic screening for endogenous TFEB and TFE3 translocation identifies novel chemical series modulating lysosome function” (Autophagy, 2022).

What was measured:
Type in all cases: binding
[1] = molecular target: T1, kinases (KINOMEscan panel) (Homo sapiens, UniProt O14730); conditions: RIOK3; NEW KINOMEscan
T1 sequence (O14730 1-519): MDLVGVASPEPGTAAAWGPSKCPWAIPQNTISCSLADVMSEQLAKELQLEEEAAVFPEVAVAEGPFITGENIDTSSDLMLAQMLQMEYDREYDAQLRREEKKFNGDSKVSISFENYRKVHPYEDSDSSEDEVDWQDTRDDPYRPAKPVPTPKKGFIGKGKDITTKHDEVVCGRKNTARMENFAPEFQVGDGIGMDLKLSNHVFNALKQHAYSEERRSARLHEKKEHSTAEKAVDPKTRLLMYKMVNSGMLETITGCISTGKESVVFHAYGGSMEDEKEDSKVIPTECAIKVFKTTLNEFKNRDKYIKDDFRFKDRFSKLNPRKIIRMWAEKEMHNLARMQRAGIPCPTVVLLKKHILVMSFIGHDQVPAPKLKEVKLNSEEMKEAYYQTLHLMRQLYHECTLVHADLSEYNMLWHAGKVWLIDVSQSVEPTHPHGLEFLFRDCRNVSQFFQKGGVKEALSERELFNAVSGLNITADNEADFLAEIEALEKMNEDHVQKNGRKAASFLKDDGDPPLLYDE

[2] = molecular target: kinases (KINOMEscan panel) (Homo sapiens, UniProt P00519, E255K); conditions: NEW KINOMEscan
[3] = molecular target: kinases (KINOMEscan panel) (Homo sapiens, UniProt P36888, D835V); conditions: NEW KINOMEscan
[4] = molecular target: kinases (KINOMEscan panel) (Homo sapiens, UniProt P42336, H1047Y); conditions: kinase PIK3CA(H1047Y); NEW KINOMEscan
[5] = molecular target: kinases (KINOMEscan panel) (Homo sapiens, UniProt P43405); conditions: SYK; NEW KINOMEscan
[6] = molecular target: T2, kinases (KINOMEscan panel) (Homo sapiens, UniProt Q96PY6); conditions: kinase NEK1; NEW KINOMEscan
T2 sequence (Q96PY6 1-1258): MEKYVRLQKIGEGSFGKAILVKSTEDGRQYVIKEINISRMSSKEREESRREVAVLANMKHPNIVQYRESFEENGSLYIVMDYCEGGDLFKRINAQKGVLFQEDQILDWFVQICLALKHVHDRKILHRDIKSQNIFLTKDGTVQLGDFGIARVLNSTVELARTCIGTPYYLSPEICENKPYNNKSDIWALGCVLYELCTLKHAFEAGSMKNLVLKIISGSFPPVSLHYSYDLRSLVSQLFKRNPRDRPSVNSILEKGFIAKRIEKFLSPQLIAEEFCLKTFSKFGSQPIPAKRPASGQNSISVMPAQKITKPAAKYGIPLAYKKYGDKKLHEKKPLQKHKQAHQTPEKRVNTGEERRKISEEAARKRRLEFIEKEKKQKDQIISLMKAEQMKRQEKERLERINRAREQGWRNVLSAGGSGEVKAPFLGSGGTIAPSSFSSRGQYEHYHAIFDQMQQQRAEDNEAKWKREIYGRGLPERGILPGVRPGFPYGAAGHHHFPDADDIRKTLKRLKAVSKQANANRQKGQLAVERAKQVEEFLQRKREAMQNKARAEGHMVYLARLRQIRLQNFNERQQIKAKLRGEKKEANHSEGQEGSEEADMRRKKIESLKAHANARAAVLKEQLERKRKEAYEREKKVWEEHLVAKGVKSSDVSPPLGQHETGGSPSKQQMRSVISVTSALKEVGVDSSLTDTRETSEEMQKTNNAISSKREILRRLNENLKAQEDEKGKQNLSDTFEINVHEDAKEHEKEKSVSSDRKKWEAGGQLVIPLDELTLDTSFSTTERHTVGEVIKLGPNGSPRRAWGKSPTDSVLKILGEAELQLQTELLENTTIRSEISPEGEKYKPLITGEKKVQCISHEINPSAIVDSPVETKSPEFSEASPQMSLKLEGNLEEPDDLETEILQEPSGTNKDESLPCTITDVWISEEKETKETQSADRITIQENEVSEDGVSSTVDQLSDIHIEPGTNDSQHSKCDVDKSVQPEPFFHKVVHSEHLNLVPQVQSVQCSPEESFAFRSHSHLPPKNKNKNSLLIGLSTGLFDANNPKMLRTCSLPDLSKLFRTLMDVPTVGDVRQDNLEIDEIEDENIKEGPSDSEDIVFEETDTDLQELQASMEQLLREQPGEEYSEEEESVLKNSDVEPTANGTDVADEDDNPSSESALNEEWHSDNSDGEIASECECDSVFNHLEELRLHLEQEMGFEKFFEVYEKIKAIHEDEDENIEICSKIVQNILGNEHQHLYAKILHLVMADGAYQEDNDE

kinases (KINOMEscan panel) (Homo sapiens, UniProt P00519, E255K), sequence (P00519 whole entry E255K): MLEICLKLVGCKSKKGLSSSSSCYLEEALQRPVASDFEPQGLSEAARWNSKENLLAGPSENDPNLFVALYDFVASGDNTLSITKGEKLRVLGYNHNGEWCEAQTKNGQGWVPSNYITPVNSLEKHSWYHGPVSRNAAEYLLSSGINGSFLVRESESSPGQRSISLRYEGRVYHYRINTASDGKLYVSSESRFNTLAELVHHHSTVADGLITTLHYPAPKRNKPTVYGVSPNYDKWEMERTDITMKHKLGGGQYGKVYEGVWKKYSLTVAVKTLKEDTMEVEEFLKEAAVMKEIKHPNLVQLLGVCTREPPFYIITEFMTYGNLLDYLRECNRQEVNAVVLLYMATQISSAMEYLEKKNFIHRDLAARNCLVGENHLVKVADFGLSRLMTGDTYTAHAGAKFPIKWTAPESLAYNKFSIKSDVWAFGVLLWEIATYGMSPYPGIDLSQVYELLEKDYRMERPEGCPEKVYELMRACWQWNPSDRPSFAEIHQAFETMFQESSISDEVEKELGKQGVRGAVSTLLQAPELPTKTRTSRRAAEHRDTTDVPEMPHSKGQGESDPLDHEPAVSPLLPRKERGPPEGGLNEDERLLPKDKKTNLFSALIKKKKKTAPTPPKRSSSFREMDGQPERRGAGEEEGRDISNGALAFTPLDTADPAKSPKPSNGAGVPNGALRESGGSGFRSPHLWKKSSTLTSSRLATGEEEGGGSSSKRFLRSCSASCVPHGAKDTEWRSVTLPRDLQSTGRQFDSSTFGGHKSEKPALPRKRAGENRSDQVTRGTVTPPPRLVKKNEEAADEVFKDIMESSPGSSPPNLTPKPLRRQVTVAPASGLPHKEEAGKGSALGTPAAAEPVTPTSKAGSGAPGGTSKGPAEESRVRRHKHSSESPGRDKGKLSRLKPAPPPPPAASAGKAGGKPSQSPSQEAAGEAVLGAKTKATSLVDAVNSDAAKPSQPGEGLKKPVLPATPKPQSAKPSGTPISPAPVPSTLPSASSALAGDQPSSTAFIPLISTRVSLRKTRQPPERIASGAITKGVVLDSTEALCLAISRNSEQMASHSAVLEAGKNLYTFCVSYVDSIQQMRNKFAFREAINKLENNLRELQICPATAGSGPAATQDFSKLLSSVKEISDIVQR
kinases (KINOMEscan panel) (Homo sapiens, UniProt P42336, H1047Y), sequence (P42336 whole entry H1047Y): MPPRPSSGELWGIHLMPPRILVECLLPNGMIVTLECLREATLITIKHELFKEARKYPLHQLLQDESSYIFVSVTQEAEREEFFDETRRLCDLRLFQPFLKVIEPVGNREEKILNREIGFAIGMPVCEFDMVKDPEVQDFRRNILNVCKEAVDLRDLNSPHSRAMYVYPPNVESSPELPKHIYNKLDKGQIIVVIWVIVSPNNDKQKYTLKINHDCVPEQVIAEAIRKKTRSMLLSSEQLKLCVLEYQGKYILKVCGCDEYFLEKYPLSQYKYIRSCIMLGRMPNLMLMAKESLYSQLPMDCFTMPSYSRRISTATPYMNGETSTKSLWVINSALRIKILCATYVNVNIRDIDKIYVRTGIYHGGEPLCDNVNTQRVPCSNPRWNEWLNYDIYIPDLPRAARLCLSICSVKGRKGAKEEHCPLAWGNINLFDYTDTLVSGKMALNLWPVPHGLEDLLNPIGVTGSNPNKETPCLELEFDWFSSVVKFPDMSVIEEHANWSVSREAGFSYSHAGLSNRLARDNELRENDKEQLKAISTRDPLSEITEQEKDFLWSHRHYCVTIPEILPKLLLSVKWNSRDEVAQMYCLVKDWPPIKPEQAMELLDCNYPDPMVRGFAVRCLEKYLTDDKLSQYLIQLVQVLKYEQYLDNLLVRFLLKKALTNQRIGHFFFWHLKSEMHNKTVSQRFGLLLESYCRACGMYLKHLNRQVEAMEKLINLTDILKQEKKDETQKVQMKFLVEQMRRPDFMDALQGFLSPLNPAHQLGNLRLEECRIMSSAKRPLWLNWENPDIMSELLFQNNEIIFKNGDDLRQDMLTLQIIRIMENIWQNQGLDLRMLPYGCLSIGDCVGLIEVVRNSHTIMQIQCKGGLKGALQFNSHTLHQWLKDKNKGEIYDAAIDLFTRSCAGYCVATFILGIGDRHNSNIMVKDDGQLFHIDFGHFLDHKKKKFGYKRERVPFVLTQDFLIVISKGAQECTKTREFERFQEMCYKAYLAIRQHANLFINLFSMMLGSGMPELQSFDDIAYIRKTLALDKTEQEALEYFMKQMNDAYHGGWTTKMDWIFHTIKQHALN

SMILES	KINOMEscan RIOK3 [1]	KINOMEscan ABL1(E255K)-phosphorylated [2]	KINOMEscan FLT3(D835V) [3]	KINOMEscan PIK3CA(H1047Y) [4]	KINOMEscan SYK [5]	KINOMEscan NEK1 [6]
Cc1cccc(-c2nc(Nc3ccc4nn(C)cc4c3)c3ccccc3n2)n1 [NK167]	0	15	19	0	0	0
Cc1cccc(-c2nc(N(C)c3ccc4ncsc4c3)c3ccccc3n2)n1 [NK-161]	0	22	30	4	6	0
